Data from patent US6015941A, “Peptide derivatives of tachyplesin having antimicrobial activity” (Pioneer Hi-Bred International, Inc., priority 1997, dated 2000).
Read-outs that look alike come from different tables or passages of the source. Positions of bridges follow the written chain, without caps; N, C: chain ends. Residues, ends and D or L forms follow the SMILES beside them.

Tests used:
Aspergillus flavus = assay type: cell-based
E. coli = assay type: cell-based
[1] = test system: Candida albicans (ATCC 10231); assay type: cell-based
[2] = test system: Shigella dysenteriae (ATCC 13313); assay: Disk diffusion assay, human pathogens; assay type: cell-based
[3] = test system: maize protoplasts (Black Mexican Sweet)
[4] = test system: Staphylococcus aureaus (ATCC 25923); assay type: cell-based, S. aureus
[5] = test system: Pseudomonas aeruginosa (ATCC 21036); assay type: cell-based
[6] = test system: Salmonella typhimurium (ATCC 13311); assay type: cell-based
Fusarium moniliforme = assay type: cell-based
human erythrocytes [7] = details: red cells of human, 100 μM
Fusarium graminearum = assay type: cell-based
human erythrocytes [8] = details: cited from earlier work
[9] = average of two independent measurements, SD 15%
[10] = minimum complete inhibitory concentration, average of two measurements

Row | Compound | lysis of rabbit erythrocytes (rabbit erythrocytes) | A. flavus MCIC (Aspergillus flavus) | A. flavus MIC (Aspergillus flavus) [µM] | F. moniliforme MCIC (Fusarium moniliforme) | F. moniliforme MIC (Fusarium moniliforme) [µM] | hemolysis of human erythrocytes (human erythrocytes [7]) | F. graminearum MIC (Fusarium graminearum; [9]) [µM] | F. graminearum MCIC (Fusarium graminearum; [10]) [µM] | further results
1 | CC[C@H](C)[C@H](NC(=O)CN)C(=O)NCC(=O)N[C@@H](C)C(=O)N[C@H](C(=O)N[C@@H](CC(C)C)C(=O)N[C@@H](CCCCN)C(=O)N[C@H](C(=O)N[C@@H](CC(C)C)C(=O)N[C@H](C(=O)N[C@H](C(=O)NCC(=O)N[C@@H](CC(C)C)C(=O)N1CCC[C@H]1C(=O)N[C@@H](C)C(=O)N[C@@H](CC(C)C)C(=O)N[C@H](C(=O)N[C@@H](CO)C(=O)N[C@@H](Cc1c[nH]c2ccccc12)C(=O)N[C@H](C(=O)N[C@@H](CCCCN)C(=O)N[C@@H](CCCNC(=N)N)C(=O)N[C@@H](CCCCN)C(=O)N[C@@H](CCCNC(=N)N)C(=O)N[C@@H](CCC(N)=O)C(=O)N[C@@H](CCC(N)=O)C(N)=O)[C@@H](C)CC)[C@@H](C)CC)[C@@H](C)O)[C@@H](C)O)C(C)C)C(C)C [Melittin] | complete lysis |  |  |  |  |  |  |  | 
2 | CC[C@H](C)[C@@H]1NC(=O)CNC(=O)[C@H](CCCNC(=N)N)NC(=O)[C@H](Cc2ccc(O)cc2)NC(=O)[C@@H]2CSSC[C@H](NC1=O)C(=O)N[C@@H](Cc1ccc(O)cc1)C(=O)N[C@@H](CCCNC(=N)N)C(=O)N[C@@H](CCCNC(=N)N)C(=O)N[C@H](C(=O)N[C@@H](CCCNC(=N)N)C(=O)O)CSSC[C@H](NC(=O)[C@H](Cc1c[nH]c3ccccc13)NC(=O)[C@@H](N)CCCCN)C(=O)N[C@@H](Cc1ccccc1)C(=O)N[C@@H](CCCNC(=N)N)C(=O)N[C@@H](C(C)C)C(=O)N2 [TP, tachyplesin] (H-KWCFRVCYRGICYRRCR-OH; disulfide 3-16, 7-12) | little or no activity | 34 | 13 | 21 | 8 | about 15% | 8 | 17 | E. coli MCIC (E. coli): 3; E. coli MIC (E. coli): 1 µM; C. albicans zone size [1]: 16 mm; S. dysenteria zone size ([2]; 50 μg per disk): 18 mm; S. dysenteria zone size ([2]; 100 μg per disk): 18 mm; order of toxicity as measured by cell viability [3]: TPF>TP/TPM>TPI/TPL>TPY>TPA/TPV and TPD; S. aureus zone size [4]: 18 mm; P. aeruginosa zone size [5]: 14 mm; S. typhimurium zone size [6]: 18 mm
3 | CC[C@H](C)[C@@H]1NC(=O)CNC(=O)[C@H](CCCNC(=N)N)NC(=O)[C@H](Cc2ccc(O)cc2)NC(=O)[C@@H]2CSSC[C@H](NC1=O)C(=O)N[C@@H](Cc1ccc(O)cc1)C(=O)N[C@@H](CCCNC(=N)N)C(=O)N[C@@H](CCCNC(=N)N)C(=O)N[C@H](C(=O)N[C@@H](CCCNC(=N)N)C(N)=O)CSSC[C@H](NC(=O)[C@H](Cc1c[nH]c3ccccc13)NC(=O)[C@@H](N)CCCCN)C(=O)N[C@@H](Cc1ccccc1)C(=O)N[C@@H](CCCNC(=N)N)C(=O)N[C@@H](C(C)C)C(=O)N2 [amidated-TP] (H-KWCFRVCYRGICYRRCR-NH2; disulfide 3-16, 7-12) |  |  |  |  |  | about 30% |  |  | lysis of human erythrocytes (human erythrocytes [8]): 100%
4 | cecropin B |  | > 20 | > 20 | 20 | 3 |  | 3 | 5 | 
5 | mastoparan [mastoporan] |  | > 50 | 24 | 11 | 3 |  |  |  | F. graminearum MCIC (Fusarium graminearum): 8; F. graminearum MIC (Fusarium graminearum): 5 µM
